Key:
[1] = molecular target: FGFR2 (h) (Homo sapiens, UniProt P21802); assay: FGFR2 (enzymatic assay), TR-FRET; assay type: biochemical; details: 0.4 μM ATP; read-out: FGFR2 pIC50 (converted)
Protocol: (§1) In a final reaction volume of 30 μL, FGFR2 (h) (150 ng/ml) was incubated with 50 mM HEPES pH 7.5, 6 mM MnCl2, 1 mM DTT, 0.1 mM Na3VO4, 0.01% Triton-X-100, 500 nM Btn-Flt3 and 0.4 μM ATP in the presence of compound (1% DMSO final). After incubation for 60 minutes at room temperature the reaction was stopped with 2.27 nM EU-anti P-Tyr, 7 mM EDTA, 31.25 nM SA-XL-665 and 0.02% BSA which was present for 60 minutes at room temperature. Time-Resolved Fluorescence Resonance Energy Transfer (TR-FRET) signal (ex340 nm. Em 620 nm, em 655 nm) was measured afterwards and results are expressed in (Relative Fluorescence Units). In this assay, the inhibitory effect of different compound concentrations (range 10 μM to 0.1 nM) was determined and used to calculate an IC50 (M) and pIC50 (−log IC50) value.

[2] = molecular target: FGFR3 (h) (Homo sapiens, UniProt P22607); assay: FGFR3 (enzymatic assay), TR-FRET; assay type: biochemical; details: 25 μM ATP; read-out: FGFR3 pIC50 (converted)
Protocol: as §1, with “30 μL, FGFR3 (h) (40” for “30 μL, FGFR2 (h) (150”, “FGFR3 (h) (40 ng/ml) was” for “FGFR2 (h) (150 ng/ml) was”, “Btn-Flt3 and 25 μM ATP” for “Btn-Flt3 and 0.4 μM ATP”, “expressed in RFU (Relative Fluorescence” for “expressed in (Relative Fluorescence”

[3] = molecular target: FGFR4 (h) (Homo sapiens, UniProt P22455); assay: FGFR4 (enzymatic assay), TR-FRET; assay type: biochemical; details: 5 μM ATP; read-out: FGFR4 pIC50 (converted)
Protocol: as §1, with “30 μL, FGFR4 (h) (60” for “30 μL, FGFR2 (h) (150”, “FGFR4 (h) (60 ng/ml) was” for “FGFR2 (h) (150 ng/ml) was”, “Btn-Flt3 and 5 μM ATP” for “Btn-Flt3 and 0.4 μM ATP”, “expressed in RFU (Relative Fluorescence” for “expressed in (Relative Fluorescence”

[4] = molecular target: KDR (h) (VEGFR2) (Homo sapiens, UniProt P35968); assay: KDR (VEGFR2) (enzymatic assay), TR-FRET; assay type: biochemical; details: 3 μM ATP; read-out: VEGFR2 (KDR) pIC50 (converted)
Protocol: KDR (VEGFR2) (Enzymatic Assay)
as §1, with “30 μL, KDR (h) (150” for “30 μL, FGFR2 (h) (150”, “Btn-Flt3 and 3 μM ATP” for “Btn-Flt3 and 0.4 μM ATP”, “incubation for 120 minutes at” for “incubation for 60 minutes at”, “expressed in RFU (Relative Fluorescence” for “expressed in (Relative Fluorescence”

[5] = molecular target: T1, Ba/F3-FGFR3-transfected cells (Homo sapiens, UniProt P22607); assay: Ba/F3-FGFR3 (minus IL3 or plus IL3) cellular proliferation assay; assay type: cell-based; details: minus IL3
T1 construct: BAF3-FGFR3 (MIN IL3) pIC50; other: minus IL3
Protocol: (§2) Ba/F3-FGFR3 (Minus IL3 or Plus IL3) (Cellular Proliferation Assay)
(§3) In a 384 well plate, 100 nI of compound dilution in DMSO was sprayed before adding 50 μl cell culture medium (phenol red free RPMI-1640, 10% FBS, 2 mM L-Glutamine and 50 μg/ml Gentamycin) containing 20000 cells per well of Ba/F3-FGFR3-transfected cells. Cells were put in an incubator at 37° C. and 5% CO2. After 24 hours, 10 μl of Alamar Blue solution (0.5 mM K3Fe(CN)6, 0.5 mM K4Fe(CN)6, 0.15 mM Resazurin and 100 mM Phosphate Buffer) was added to the wells, incubated for 4 hours at 37° C. and 5% CO2 before RFU's (Relative Fluorescence Units) (ex. 540 nm., em. 590 nm.) were measured in a fluororescence plate reader.
(§4) In this assay, the inhibitory effect of different compound concentrations (range 10 μM to 0.1 nM) was determined and used to calculate an IC50 (M) and pIC50 (−log IC50) value. As a counterscreen the same experiment was performed in the presence of 10 ng/ml murine IL3.

[6] = system: Ba/F3-FGFR3-transfected cells; assay: as above; assay type: cell-based; details: 24 h; plus 10 ng/ml murine IL3 (counterscreen); read-out: BAF3-FGFR3 (PLUS IL3) pIC50 (converted)
Protocol: as §2, §3, §4

Sequence of FGFR2 (h) (P21802 22-821): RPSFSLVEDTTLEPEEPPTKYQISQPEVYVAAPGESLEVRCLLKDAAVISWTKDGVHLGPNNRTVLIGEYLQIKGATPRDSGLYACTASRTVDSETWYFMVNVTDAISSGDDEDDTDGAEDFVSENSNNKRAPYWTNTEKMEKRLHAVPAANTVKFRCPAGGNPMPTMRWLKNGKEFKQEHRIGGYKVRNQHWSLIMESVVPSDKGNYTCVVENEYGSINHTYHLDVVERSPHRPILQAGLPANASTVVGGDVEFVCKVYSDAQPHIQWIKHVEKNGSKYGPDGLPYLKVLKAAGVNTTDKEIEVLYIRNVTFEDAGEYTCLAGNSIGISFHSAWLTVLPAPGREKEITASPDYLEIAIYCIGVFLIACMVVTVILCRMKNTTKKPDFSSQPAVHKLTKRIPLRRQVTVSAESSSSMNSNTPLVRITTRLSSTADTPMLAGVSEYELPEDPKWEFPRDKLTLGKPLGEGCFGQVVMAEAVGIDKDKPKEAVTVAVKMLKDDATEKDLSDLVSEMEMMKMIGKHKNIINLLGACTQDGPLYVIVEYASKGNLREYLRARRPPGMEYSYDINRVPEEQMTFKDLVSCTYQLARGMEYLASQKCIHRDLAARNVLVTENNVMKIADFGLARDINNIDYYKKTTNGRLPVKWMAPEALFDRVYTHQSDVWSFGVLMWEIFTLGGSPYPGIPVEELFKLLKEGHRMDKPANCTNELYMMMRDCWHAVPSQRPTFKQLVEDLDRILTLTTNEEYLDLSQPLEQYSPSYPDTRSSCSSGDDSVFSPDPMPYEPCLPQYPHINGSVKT
Sequence of KDR (h) (VEGFR2) (P35968 20-1356): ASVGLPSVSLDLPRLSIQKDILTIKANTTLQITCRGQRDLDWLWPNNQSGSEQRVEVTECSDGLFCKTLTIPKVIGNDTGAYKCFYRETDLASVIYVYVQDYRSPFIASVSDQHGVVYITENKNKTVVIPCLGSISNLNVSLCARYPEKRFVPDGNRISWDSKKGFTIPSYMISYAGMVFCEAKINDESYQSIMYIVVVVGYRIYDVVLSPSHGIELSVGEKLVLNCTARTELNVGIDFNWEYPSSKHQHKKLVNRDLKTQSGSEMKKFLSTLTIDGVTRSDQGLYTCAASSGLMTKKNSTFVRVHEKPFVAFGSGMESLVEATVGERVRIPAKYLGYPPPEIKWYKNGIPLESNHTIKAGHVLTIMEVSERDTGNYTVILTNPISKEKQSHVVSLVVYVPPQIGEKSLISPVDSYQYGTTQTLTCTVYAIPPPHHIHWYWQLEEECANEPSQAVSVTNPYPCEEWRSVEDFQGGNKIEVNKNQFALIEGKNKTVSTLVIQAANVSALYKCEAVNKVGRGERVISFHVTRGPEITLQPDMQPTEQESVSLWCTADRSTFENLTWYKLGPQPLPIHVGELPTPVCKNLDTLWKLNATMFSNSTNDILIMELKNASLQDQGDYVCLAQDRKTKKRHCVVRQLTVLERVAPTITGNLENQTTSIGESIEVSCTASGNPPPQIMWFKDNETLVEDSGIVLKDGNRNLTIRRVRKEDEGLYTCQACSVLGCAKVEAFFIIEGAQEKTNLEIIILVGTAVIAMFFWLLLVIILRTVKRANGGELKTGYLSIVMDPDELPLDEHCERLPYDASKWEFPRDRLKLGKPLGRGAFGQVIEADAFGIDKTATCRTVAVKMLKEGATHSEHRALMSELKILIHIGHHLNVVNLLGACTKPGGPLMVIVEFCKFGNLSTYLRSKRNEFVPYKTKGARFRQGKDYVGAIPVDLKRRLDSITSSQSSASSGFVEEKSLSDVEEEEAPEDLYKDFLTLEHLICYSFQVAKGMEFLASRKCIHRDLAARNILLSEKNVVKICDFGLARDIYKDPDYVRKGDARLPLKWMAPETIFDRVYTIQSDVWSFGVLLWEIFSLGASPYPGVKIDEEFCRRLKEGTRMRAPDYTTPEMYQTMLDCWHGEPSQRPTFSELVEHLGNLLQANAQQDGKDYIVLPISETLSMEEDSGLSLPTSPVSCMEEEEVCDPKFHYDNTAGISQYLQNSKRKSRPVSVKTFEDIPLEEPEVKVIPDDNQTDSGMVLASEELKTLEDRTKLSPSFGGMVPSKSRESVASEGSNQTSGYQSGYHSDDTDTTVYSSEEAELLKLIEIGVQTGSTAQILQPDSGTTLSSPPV
T1 sequence (P22607 whole entry, change not shown): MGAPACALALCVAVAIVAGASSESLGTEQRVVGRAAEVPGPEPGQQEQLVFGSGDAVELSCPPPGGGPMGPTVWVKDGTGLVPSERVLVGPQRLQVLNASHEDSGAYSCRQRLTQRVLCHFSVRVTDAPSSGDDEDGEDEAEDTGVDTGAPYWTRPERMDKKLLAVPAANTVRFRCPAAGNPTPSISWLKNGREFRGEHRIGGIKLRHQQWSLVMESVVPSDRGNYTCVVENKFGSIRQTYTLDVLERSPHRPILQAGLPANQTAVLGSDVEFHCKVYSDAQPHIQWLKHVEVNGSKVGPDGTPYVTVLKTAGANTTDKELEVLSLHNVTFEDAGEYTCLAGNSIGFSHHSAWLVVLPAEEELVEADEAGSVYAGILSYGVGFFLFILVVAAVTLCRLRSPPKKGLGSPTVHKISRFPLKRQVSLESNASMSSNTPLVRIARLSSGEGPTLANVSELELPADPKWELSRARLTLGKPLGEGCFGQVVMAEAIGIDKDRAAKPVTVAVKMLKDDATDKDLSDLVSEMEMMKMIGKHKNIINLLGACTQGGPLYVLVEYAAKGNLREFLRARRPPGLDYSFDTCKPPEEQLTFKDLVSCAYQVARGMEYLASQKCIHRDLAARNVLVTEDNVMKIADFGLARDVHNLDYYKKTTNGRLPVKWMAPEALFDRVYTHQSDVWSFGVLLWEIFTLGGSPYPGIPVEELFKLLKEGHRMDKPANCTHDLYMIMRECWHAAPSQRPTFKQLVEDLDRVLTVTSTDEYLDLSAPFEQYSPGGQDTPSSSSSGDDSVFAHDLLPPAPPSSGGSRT
Sequence of FGFR4 (h) (P22455 22-802): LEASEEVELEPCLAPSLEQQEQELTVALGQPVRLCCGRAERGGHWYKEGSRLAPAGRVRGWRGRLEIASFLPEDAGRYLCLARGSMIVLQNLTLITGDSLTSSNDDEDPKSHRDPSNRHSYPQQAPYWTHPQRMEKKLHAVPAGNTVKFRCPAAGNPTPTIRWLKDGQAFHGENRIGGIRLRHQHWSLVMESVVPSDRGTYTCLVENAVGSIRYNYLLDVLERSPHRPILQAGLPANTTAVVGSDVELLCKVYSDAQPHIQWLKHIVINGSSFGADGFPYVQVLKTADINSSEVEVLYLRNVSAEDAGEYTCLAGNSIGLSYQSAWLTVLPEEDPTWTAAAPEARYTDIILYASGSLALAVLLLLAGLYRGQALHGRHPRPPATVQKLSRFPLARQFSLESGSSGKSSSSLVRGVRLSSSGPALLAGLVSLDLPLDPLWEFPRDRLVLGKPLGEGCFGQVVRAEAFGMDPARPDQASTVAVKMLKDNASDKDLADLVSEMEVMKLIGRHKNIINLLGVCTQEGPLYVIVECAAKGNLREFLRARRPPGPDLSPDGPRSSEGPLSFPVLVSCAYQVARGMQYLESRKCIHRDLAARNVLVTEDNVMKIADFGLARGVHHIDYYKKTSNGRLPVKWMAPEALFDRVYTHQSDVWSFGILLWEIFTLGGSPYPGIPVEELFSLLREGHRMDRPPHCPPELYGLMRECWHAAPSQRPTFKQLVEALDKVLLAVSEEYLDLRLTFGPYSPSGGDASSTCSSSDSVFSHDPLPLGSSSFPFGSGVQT
Sequence of FGFR3 (h) (P22607 23-806): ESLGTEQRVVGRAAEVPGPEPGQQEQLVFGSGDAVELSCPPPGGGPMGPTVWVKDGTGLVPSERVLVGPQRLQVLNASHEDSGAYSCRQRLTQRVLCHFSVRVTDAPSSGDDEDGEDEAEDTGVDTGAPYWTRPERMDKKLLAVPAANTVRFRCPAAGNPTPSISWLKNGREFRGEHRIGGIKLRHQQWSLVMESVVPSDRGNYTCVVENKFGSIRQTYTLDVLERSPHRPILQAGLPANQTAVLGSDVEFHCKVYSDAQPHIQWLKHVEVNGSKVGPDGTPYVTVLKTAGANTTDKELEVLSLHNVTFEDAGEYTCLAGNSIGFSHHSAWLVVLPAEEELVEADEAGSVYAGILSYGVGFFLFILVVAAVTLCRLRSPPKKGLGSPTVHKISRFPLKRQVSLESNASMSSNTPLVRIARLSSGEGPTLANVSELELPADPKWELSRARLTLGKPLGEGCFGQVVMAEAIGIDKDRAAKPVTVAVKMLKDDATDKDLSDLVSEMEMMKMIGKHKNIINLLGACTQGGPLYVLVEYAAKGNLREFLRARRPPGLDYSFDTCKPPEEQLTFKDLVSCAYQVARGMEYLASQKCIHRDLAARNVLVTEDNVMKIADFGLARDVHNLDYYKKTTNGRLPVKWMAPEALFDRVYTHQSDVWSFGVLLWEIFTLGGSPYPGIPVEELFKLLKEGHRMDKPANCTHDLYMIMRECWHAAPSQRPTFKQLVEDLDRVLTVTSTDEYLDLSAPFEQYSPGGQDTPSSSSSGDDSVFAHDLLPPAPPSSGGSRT

Row | Structure (SMILES) | IC50 [1] | IC50 [2] | IC50 [3] | IC50 [4] | BAF3-FGFR3 (MIN IL3) pIC50 [5] | IC50 [6]
1 | COc1cc(OC)cc(C(CCO)c2ccc3ncc(-c4cnn(C)c4)nc3c2)c1 (stereo not drawn) [Compound 22] | 126 nM | 51.3 nM | 513 nM | > 1000 nM | 5.65 | > 10000 nM
2 | COc1cc(OC)cc(C(CC(=O)NC(C)C)c2ccc3ncc(-c4cnn(C)c4)nc3c2)c1 (stereo not drawn) [Compound 23] | > 1000 nM | > 1000 nM | > 1000 nM | > 1000 nM | <5 | > 10000 nM
3 | COc1cc(OC)cc(C(CC(C)(O)CNC(C)C)c2ccc3ncc(-c4cnn(C)c4)nc3c2)c1.Cl (stereo not drawn) [Compound 25] | ~1000 nM | 708 nM | > 1000 nM | 562 nM | 5.13 | > 10000 nM
4 | Cn1cc(-c2cnc3ccc(C(O)c4ccccc4)cc3n2)cn1 (stereo not drawn) [Compound 28] | 2630 nM | 3720 nM | 8510 nM | 1580 nM | <5 | > 10000 nM
5 | COc1cc(OC)cc(C(CCNC(C)C)c2ccc3ncc(-c4cnn(C)c4)nc3c2)c1.Cl (stereo not drawn) [Compound 29, {3-(3,5-Dimethoxy-phenyl)-3-[3-(1-methyl-1H-pyrazol-4-yl)-quinoxalin-6-yl]-propyl}-isopropyl-amine] | 25.7 nM | 35.5 nM | 275 nM | > 1000 nM | 6.44 | > 10000 nM
6 | COc1cc(OC)cc(C2(c3ccc4ncc(-c5cnn(C)c5)nc4c3)CC2)c1 [Compound 30] | 50.1 nM | 43.7 nM | 479 nM | 501 nM | 5.63 | > 10000 nM
7 | COc1cc(OC)cc(C(CCNCC(F)(F)F)c2ccc3ncc(-c4cnn(C)c4)nc3c2)c1.Cl (stereo not drawn) [Compound 33] | 380 nM | 138 nM | ~1000 nM | > 1000 nM | ~5.11 | > 10000 nM
8 | COc1cc(OC)cc(/C(=C/CN(C)C)c2ccc3ncc(-c4cnn(C)c4)nc3c2)c1 [Compound 34] | 170 nM | 107 nM | > 1000 nM | > 1000 nM | ~5.13 | > 10000 nM
9 | CN(C)CCC(c1ccccc1)c1ccc2ncc(-c3cnn(C)c3)nc2c1 (stereo not drawn) [Compound 35] | > 1000 nM | > 1000 nM | > 1000 nM | > 1000 nM | <5 | > 10000 nM
10 | COc1cc(OC)cc(C(CCCN)c2ccc3ncc(-c4cnn(C)c4)nc3c2)c1.Cl (stereo not drawn) [Compound 40] | 427 nM | 269 nM | > 1000 nM | > 1000 nM | 5.27 | > 10000 nM

From patent publication US9290478B2, “Substituted quinoxalines as FGFR kinase inhibitors” (ASTEX THERAPEUTICS LTD, priority 2010, dated 2016)
